The target of experiment [1] is E. coli PBP1b (Escherichia coli (strain K12), UniProt P02919). Description: Radioligand competition binding assay with 14C-labeled boronic acid probe, PBP1b. (In general: Displacement assays read how much labelled ligand stays bound in the presence of the test substance.)
Experiment [2] deals with E. coli DH5α empty pLBII vector control strain. The experiment can be described thus: microbe, parasite or virus in culture. The format is cell-based, Escherichia coli. The settings on record: Escherichia coli, read-out: Microbiological Activity (MIC in mg/L), E. coli DH5α/pLBII. The method, then: Briefly, cryo-preserved bacterial cultures of challenge strains are streaked for isolation on appropriate agar medium, in this case Mueller Hinton II agar. Following incubation to allow growth of the colonies, plates are sealed with parafilm and stored refrigerated for up to two weeks. For preparation of assay inoculum and to ensure low variability, at least 5 colonies are picked from the agar plates with an inoculating loop and aseptically transferred to a culture tube containing 3 mL of Mueller-Hinton Broth (supplemented with divalent cations to required levels based on Manufacturers' certification). The broth culture is grown for 3-5 hours at 37° C. with shaking at 200 rpm. Meanwhile, 2-fold serial dilutions of test compounds are conducted in a 96 well plate with a final volume of 75 μL per well at 2-fold the final desired concentration. After the dilution plates are set up the growing cultures are then diluted in a cuvette containing MH II broth and the optical density is measured at 600 nm. The Inoculum is diluted such that 75 μL of this culture in Mueller-Hinton Broth results in a starting bacterial concentration of 5×10^5 CFU/mL when added to the dilution plates. The plates are incubated for 16-20 hours at 37° C. The MIC values are read visually as the lowest concentration well with no bacterial growth.
To determine if test compounds were affected by CTX-M15, the most abundant extended spectrum […] in clinical settings worldwide, the inhibition of the growth of an engineered strain of Escherichia coli harboring CTX-M15 was tested. This strain was constructed by cloning the gene encoding CTX-M15 into the NdeI and BamHI restriction endonuclease sites of plasmid pLBII, placing the gene(s) under the control of the Lac promoter. The constructed expression plasmid for CTX-M15 was used to transform competent E. coli DH5α cells to make the engineered strain, including an empty pLBII vector control strain. The classic cell based broth microdilution MIC assay was employed as described above with the addition of control antibiotics, known to be degraded by β-lactamases (Ceftazidime, piperacillin and piperacillin+tazobactam).

Experiment [3] has as its system engineered strain of Escherichia coli harboring CTX-M15. Description: microbe, parasite or virus in culture. The format is cell-based. Particulars: Escherichia coli, read-out: Microbiological Activity (MIC in mg/L), E. coli DH5α/pLBII-CTX-M15, engineered strain producing CTX-M15.
Experiment [4] concerns the target E. coli PBP3 (Escherichia coli (strain K12), UniProt P0AD68). The experiment can be described thus: E. coli PBP3 Bocillin-FL fluorescence polarization competition binding assay. The procedure, abridged: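 Purified PBP (1.5 μM final) was combined with test compound (0–1000 μM) and Bocillin-FL (fluorescent penicillin V, 0.1 μM final) in 50 mM Hepes pH 8.0, 300 mM NaCl, 5% glycerol.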
Background: Polarisation of emitted light reports the rotation of a fluorescent probe.

The subject of experiment [5] is E. coli AG100. Description: Broth microdilution MIC, E. coli AG100 (wild-type parent). The format is cell-based. Particulars: Escherichia coli; wild-type parent E. coli AG100, broth microdilution; read-out: MIC E. coli AG100. A digest of the protocol: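 Broth microdilution in cation-supplemented Mueller-Hinton broth, 2-fold serial compound dilutions, inoculum 5×10^5 CFU/mL from 3-5 h log culture.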
A general note: Dilution methods test growth across graded concentrations, often in twofold steps.

The test system of experiment [6] is E. coli 901C. The experiment can be described thus: microbe, parasite or virus in culture. The format is cell-based. The settings on record: Escherichia coli; hyper-permeable E. coli 901C, broth microdilution; read-out: MIC E. coli 901C. A digest of the protocol:
(§1)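 MIC = lowest concentration showing no visible growth after 16-20 h at 37° C. Cation-adjusted MH broth, 2-fold serial dilutions, starting inoculum 5×10^5 CFU/mL, per CLSI methods.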

Experiment [7] deals with K. pneumoniae UMM. The experiment can be described thus: microbe, parasite or virus in culture. The format is cell-based. Particulars: Klebsiella pneumoniae; K. pneumoniae UMM producing SHV-5 and KPC-2; read-out: MIC K. pneumoniae UMM. A digest of the protocol: as §1
Experiment [8] concerns E. coli AG100A. Description: microbe, parasite or virus in culture. The format is cell-based. Particulars: Escherichia coli, read-out: MIC E. coli AG100A. A digest of the protocol:
as §1

In experiment [9] the test system is E. coli ATCC 25922. The experiment can be described thus: Broth microdilution MIC, E. coli ATCC 25922. The format is cell-based. Particulars: Escherichia coli, ATCC25922; E. coli ATCC 25922, broth microdilution; read-out: MIC E. coli 25922. The procedure, abridged: as §1

SMILES strings stand for the structures. In brackets after ≈: the same amount, converted by molar mass. Counter-ions that a name gives are not always drawn. Like-named read-outs stand apart in the source and are kept apart here.

Chain of E. coli PBP1b (P02919 whole entry): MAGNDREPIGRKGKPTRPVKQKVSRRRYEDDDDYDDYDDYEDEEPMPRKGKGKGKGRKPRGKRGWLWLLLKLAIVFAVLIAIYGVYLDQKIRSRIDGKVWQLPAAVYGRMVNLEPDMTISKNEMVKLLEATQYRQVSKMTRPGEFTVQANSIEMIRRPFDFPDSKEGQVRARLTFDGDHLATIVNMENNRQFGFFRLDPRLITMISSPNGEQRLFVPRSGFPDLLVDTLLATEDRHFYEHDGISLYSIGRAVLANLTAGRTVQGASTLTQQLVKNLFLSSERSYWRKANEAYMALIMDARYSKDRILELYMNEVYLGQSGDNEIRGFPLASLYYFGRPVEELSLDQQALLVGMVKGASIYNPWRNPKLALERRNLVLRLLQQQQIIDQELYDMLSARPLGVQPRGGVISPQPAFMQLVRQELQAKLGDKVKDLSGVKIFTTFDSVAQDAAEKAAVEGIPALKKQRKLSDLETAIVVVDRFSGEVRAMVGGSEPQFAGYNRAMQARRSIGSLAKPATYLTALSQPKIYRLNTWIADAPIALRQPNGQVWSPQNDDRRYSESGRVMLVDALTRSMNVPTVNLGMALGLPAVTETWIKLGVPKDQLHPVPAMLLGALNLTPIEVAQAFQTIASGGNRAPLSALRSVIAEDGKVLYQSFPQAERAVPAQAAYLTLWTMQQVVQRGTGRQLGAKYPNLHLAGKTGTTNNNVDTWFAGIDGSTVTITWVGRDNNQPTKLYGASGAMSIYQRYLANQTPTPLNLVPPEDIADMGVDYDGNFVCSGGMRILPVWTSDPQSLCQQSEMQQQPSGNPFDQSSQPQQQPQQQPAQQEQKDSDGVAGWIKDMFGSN
Chain of E. coli PBP3 (P0AD68 whole entry): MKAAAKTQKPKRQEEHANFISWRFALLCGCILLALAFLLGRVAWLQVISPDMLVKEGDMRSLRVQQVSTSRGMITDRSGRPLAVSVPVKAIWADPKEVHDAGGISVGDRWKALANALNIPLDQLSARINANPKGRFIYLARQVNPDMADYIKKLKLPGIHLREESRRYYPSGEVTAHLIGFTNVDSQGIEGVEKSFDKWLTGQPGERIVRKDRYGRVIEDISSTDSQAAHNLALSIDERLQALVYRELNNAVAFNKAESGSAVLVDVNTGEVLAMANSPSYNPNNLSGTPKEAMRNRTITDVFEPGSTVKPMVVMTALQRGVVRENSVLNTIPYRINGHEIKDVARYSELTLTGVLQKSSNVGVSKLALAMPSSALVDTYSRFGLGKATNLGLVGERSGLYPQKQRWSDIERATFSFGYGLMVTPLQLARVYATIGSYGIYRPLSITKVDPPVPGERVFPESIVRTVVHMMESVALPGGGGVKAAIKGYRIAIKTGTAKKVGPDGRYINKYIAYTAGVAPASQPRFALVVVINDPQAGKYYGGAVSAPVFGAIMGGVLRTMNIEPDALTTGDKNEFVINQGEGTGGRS

For the compound `CCN1CCN(C(=O)N[C@H](CC(=O)O)C(=O)N[C@H]2Cc3cccc(C(=O)O)c3OB2O)C(=O)C1=O` [Example 23, (R)-3-((R)-3-carboxy-2-(4-ethyl-2,3-dioxopiperazine-1-carboxamido)propanamido)-2-hydroxy-3,4-dihydro-2H-benzo[e][1,2]oxaborinine-8-carboxylic acid], the EC50 in experiment [1] was over 100 µM; in [4], over 500 µM. The MIC in [2] and in [3] was over 512 mg/L throughout.
Regarding `CCN1CCN(C(=O)NC(C(=O)N[C@H]2Cc3cccc(C(=O)O)c3OB2O)c2ccc(O)nc2)C(=O)C1=O` (stereo partly drawn) [Example 41, (3R)-3-(2-(4-ethyl-2,3-dioxopiperazine-1-carboxamido)-2-(6-hydroxypyridin-3-yl)acetamido)-2-hydroxy-3,4-dihydro-2H-benzo[e][1,2]oxaborinine-8-carboxylic acid], the EC50 in experiment [1] is under 10 µM; in experiment [4], 30 to 500 µM. For the same compound, the MIC in [2] and in [3] was 32 to 64 mg/L (≈ 60.9 to 122 µM) throughout.
With `CCN1CCN(C(=O)NC(CNC(=O)c2ccc(O)c(O)c2)C(=O)N[C@H]2Cc3cccc(C(=O)O)c3OB2O)C(=O)C1=O` (stereo partly drawn) [Example 35, (3R)-3-(3-(3,4-dihydroxybenzamido)-2-(4-ethyl-2,3-dioxopiperazine-1-carboxamido)propanamido)-2-hydroxy-3,4-dihydro-2H-benzo[e][1,2]oxaborinine-8-carboxylic acid], the EC50 is under 10 µM in experiment [1] and over 500 µM in experiment [4]. Besides, the MIC in [2] and in experiment [3] was over 512 mg/L in each case.
Regarding `CCN1CCN(C(=O)NC(CNC(=O)c2cccc(O)c2O)C(=O)N[C@H]2Cc3cccc(C(=O)O)c3OB2O)C(=O)C1=O` (stereo partly drawn) [Example 36, (3R)-3-(3-(2,3-dihydroxybenzamido)-2-(4-ethyl-2,3-dioxopiperazine-1-carboxamido)propanamido)-2-hydroxy-3,4-dihydro-2H-benzo[e][1,2]oxaborinine-8-carboxylic acid], the EC50 was under 10 µM in experiment [1] and over 500 µM in experiment [4]. Moreover, the MIC in experiment [2] and in experiment [3] was over 512 mg/L throughout.
For the compound `Nc1nc(C(NC(=O)c2cccc(O)c2O)C(=O)N[C@H]2Cc3cccc(C(=O)O)c3OB2O)cs1` (stereo partly drawn) [Example 25, (3R)-3-(2-(2-aminothiazol-4-yl)-2-(2,3-dihydroxybenzamido)acetamido)-2-hydroxy-3,4-dihydro-2H-benzo[e][1,2]oxaborinine-8-carboxylic acid], in experiment [1], the EC50 is under 10 µM. Also, the MIC in experiment [2] and in experiment [3] was over 512 mg/L in each case.
Consider `CCN1CCN(C(=O)NC(C(=O)N[C@H]2Cc3cccc(C(=O)O)c3OB2O)c2cc(OC)c(O)c(OC)c2)C(=O)C1=O` (stereo partly drawn) [Example 29, (3R)-3-(2-(4-ethyl-2,3-dioxopiperazine-1-carboxamido)-2-(4-hydroxy-3,5-dimethoxyphenyl)acetamido)-2-hydroxy-3,4-dihydro-2H-benzo[e][1,2]oxaborinine-8-carboxylic acid], for which the EC50 was over 100 µM in experiment [1] and over 500 µM in experiment [4] (fluorescence polarization competition binding with Bocillin-FL, read-out: E. coli K12 PBP3 Potency). Besides, the MIC in [2] and in experiment [3] was 128 to 256 mg/L (≈ 219 to 438 µM) in each case.
Take `CCN1CCN(C(=O)NCC(NC(=O)N2CCN(CC)C(=O)C2=O)C(=O)N[C@H]2Cc3cccc(C(=O)O)c3OB2O)C(=O)C1=O` (stereo partly drawn) [Example 33, (3R)-3-(2,3-bis(4-ethyl-2,3-dioxopiperazine-1-carboxamido)propanamido)-2-hydroxy-3,4-dihydro-2H-benzo[e][1,2]oxaborinine-8-carboxylic acid]: the EC50 in experiment [1] was under 10 µM; in experiment [4], over 500 µM. In addition, the MIC in [2] and in experiment [3] was over 512 mg/L in each case.
Take `CCN1CCN(C(=O)NC(C(=O)N[C@H]2Cc3cccc(C(=O)O)c3OB2O)c2cc(O)c(O)c(O)c2)C(=O)C1=O` (stereo partly drawn) [Example 31, (3R)-3-(2-(4-ethyl-2,3-dioxopiperazine-1-carboxamido)-2-(3,4,5-trihydroxyphenyl)acetamido)-2-hydroxy-3,4-dihydro-2H-benzo[e][1,2]oxaborinine-8-carboxylic acid]: the EC50 in [1] fell in the range of 10 to 100 µM; in experiment [4], 30 to 500 µM. In addition, the MIC in experiment [2] and in [3] was over 512 mg/L each time.
As for `CCN1CCN(C(=O)N[C@H](CN)C(=O)N[C@H]2Cc3cccc(C(=O)O)c3OB2O)C(=O)C1=O` [Example 11, (R)-3-((R)-3-amino-2-(4-ethyl-2,3-dioxopiperazine-1-carboxamido)propanamido)-2-hydroxy-3,4-dihydro-2H-benzo[e][1,2]oxaborinine-8-carboxylic acid, trifluoroacetic acid salt], the EC50 in experiment [1] was under 10 µM. Moreover, the MIC in [2] and in [3] was 128 to 256 mg/L throughout.
Regarding `Nc1nc(C(NC(=O)N2CCN(CCF)C(=O)C2=O)C(=O)N[C@H]2Cc3cccc(C(=O)O)c3OB2O)c(Cl)s1` (stereo partly drawn) [Example 13, (3R)-3-(2-(2-amino-5-chlorothiazol-4-yl)-2-(4-(2-fluoroethyl)-2,3-dioxopiperazine-1-carboxamido)acetamido)-2-hydroxy-3,4-dihydro-2H-benzo[e][1,2]oxaborinine-8-carboxylic acid], the MIC is 32 to 64 µg/mL in experiment [5]; 8 to 16 mg/L (≈ 13.7 to 27.5 µM) in experiment [2]; 8 to 16 mg/L (≈ 13.7 to 27.5 µM) in experiment [3]; under 0.25 µg/mL in experiment [6]; 32 to 64 µg/mL in experiment [7]; 2 to 4 µg/mL in experiment [8]. Also, the MIC in [9] lay in the range of 32 to 64 µg/mL. Further, the EC50 in experiment [4] lay in the range of 30 to 500 µM.
With `CCN1CCN(C(=O)N[C@@H](CC(=O)O)C(=O)N[C@H]2Cc3cccc(C(=O)O)c3OB2O)C(=O)C1=O` [Example 24, (R)-3-((S)-3-carboxy-2-(4-ethyl-2,3-dioxopiperazine-1-carboxamido)propanamido)-2-hydroxy-3,4-dihydro-2H-benzo[e][1,2]oxaborinine-8-carboxylic acid], the EC50 in experiment [1] was over 100 µM; in [4], over 500 µM. Further, the MIC in experiment [2] and in experiment [3] was over 512 mg/L in each case.

The record behind these values is patent publication US12173018B2, “Penicillin-binding protein inhibitors” (priority 2018, dated 2024).
